These results are taken from patent US4411832A, “Polysaccharide matrices comprising macromolecular spacer arms for use as adsorbents in affinity chromatography techniques” (priority 1981, dated 1983).

The target of this experiment is T1, estradiol receptor (Bos taurus, UniProt P49884).
T1 construct: incubated in suspension with varying concentrations of [^3 H]estradiol and with the uterine supernatant; from tissue; host or cells: uterus (uterine supernatant)
T1 sequence (P49884 1-596): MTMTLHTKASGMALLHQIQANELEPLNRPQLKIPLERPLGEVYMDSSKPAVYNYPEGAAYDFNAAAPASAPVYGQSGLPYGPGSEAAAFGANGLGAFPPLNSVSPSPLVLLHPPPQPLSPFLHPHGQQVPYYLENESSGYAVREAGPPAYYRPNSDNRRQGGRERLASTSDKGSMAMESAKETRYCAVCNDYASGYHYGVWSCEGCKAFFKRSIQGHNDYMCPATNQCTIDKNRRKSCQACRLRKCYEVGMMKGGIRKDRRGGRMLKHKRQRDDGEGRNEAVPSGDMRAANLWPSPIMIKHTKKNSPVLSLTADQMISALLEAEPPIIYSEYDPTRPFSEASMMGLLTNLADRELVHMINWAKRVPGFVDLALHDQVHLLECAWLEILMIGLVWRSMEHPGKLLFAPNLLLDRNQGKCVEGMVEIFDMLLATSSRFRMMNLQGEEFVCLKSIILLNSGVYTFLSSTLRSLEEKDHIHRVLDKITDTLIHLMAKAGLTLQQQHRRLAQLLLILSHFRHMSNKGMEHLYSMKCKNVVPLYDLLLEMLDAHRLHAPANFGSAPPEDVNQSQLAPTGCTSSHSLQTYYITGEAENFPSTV
In words: Affinity of the estradiol receptor for agarose-estradiol derivatives (incubation with [3H]estradiol and uterine supernatant, reciprocal plots). The settings on record: free ligand, uterine supernatant, estimated, read-out: dissociation constant. It counts as binding. The protocol:
Experiments were performed to estimate the affinity of the estradiol receptor for the macromolecular agarose-estradiol derivatives to compare the relative affinities of the various derivatives. The adsorbents are incubated in suspension with varying concentrations of [^3 H]estradiol and with the uterine supernatant, and the data were plotted in reciprocal plots to estimate the comparative affinities toward the estradiol receptor.

Take `C[C@]12CC[C@@H]3c4ccc(O)cc4CC[C@H]3[C@@H]1CC[C@@H]2OC(=O)CCC(=O)O` [17β-estradiol 17-hemisuccinate]: the Kd was around 0.7 µM.
